Measured values from US11090292B2, “Compositions and methods of use of an inappetance-controlling compound” (Aratana Therapeutics, Inc., priority 2012, dated 2021).

Assays:
[1] = Example 1: clinical observations / toxicological responses; format: in vivo; conditions: 3 mg/kg twice daily or 6 mg/kg once daily, 7 days
Method: During the ten day study period, on an at least once-daily basis, each of the dogs was monitored for clinical observations, mortality, morbidity, body mass, and food consumption. Serum samples were taken to measure capromorelin concentration, GH concentration, IGF-1 concentration, and cortisol concentration. Serum samples were taken on days 1, 2, 4, and 7 at −15 minutes (pre-dose), immediately prior to dosing (0 minutes) and 30, 45, 60, 90, 120, 240, 360, and/or 480 minutes post dosing. Additional blood samples were taken at 8 AM on Day 10 of the study to assess long-term impact of the active treatments.

[2] = system: growth hormone; test: Example 5: serum growth hormone; format: in vivo, Beagle dogs; conditions: Groups 2-4; mitigated by Day 4, further reduced by Day 7
Method: In order to further refine the dosing regimen that would provide an appropriate blood profile of capromorelin and desired results from the perspective of increased food intake and weight gain, an additional series of experiments were conducted. In these experiments, twenty-four adult (male and female) Beagle dogs weighing approximately 9 to 13 kilograms were randomly divided into four groups. Group 1 received a placebo formulation, without any active compound, two times per day; Group 2 received a composition comprising 3 mg/kg of body weight of capromorelin one time per day; Group 3 received a composition comprising 4.5 mg/kg of body weight of capromorelin one time per day; and Group 4 received a composition comprising 3 mg/kg of body weight of capromorelin two times per day. […]
In these experiments, the animals were orally administered the flavored formulation at approximately 8:00 AM and, for Group 4 only, again at 6:00 PM. […] Food consumption was calculated and recorded on Days −7 through Day 7. Baseline food consumption was calculated for each individual dog as the average number of grams of food consumed on Days −3, −2, and −1. The study period food consumption was calculated for each individual dog as the average of Days 1 through 7. […]

[3] = Example 9: clinical observations / toxicological responses; format: in vivo; conditions: injection 0.75 or 2 mg/kg, oral 2 or 4 mg/kg, once daily
Method: During the seven day study period, on an at least once-daily basis, each of the cats was monitored for clinical observations, mortality, moribundity, body mass, acceptability/palatability, and food consumption. Serum samples were taken to measure capromorelin concentration, IGF-1 concentration, and cortisol concentration. Serum samples were taken on days 1 and 4 immediately prior to dosing (0 minutes) and 30, 60, 90, 120, 240, 360, and/or 480 minutes post dosing. Additional serum samples were taken at 8 AM on Day 7 of the study to assess long-term impact of the active treatments.

[4] = Example 13 cat compromised kidney study: body weight and diet consumption; format: in vivo, cats with compromised kidney function; conditions: subcutaneous 2 mg/kg daily for 14 days
Method: (§1) The following study was undertaken to assess multiple points. First, the following experiments were conducted to determine if a formulation of capromorelin, when administered either intravenously or subcutaneously, can stimulate appetite in cats with compromised kidney function. Second, the following experiments were conducted to assess the pharmacokinetic profile of capromorelin in the serum of cats with compromised kidney function. Finally, the following experiments were conducted to determine if capromorelin accumulates in the serum after 14 days of treatment that is subcutaneously administered.
(§2) Sixteen cats with compromised kidney function were acclimatized for the following study. Animals assigned to Group 1 (n=6) received an intravenous administration of a capromorelin formulation (i.e., capromorelin in sterile water) at a dose of 0.75 mg/kg on Day 0 of the experiment. Animals assigned to Group 2 (n=6) received a subcutaneous administration of a capromorelin formulation (2.1% w/v capromorelin, 1% w/v benzyl alcohol, and citrate buffer) daily for 14 days at a dose of 2 mg/kg. Animals assigned to Group 3 (n=4) served as untreated controls. […] Diet consumption was also monitored on study days −7 until day 13 for the animals in Groups 2 and 3 only.

[5] = system: IGF-1; test: Example 13: serum IGF-1; format: in vivo, cats with compromised kidney function; conditions: 8 hours post administration; Group 1 IV Day 0, Group 2 SC Days 0 and 13
Method: as §1, §2

CN1N=C2CCN(C(=O)[C@@H](COCc3ccccc3)NC(=O)C(C)(C)N)C[C@@]2(Cc2ccccc2)C1=O.O=C(O)C(O)C(O)C(=O)O [capromorelin]
toxicological responses [1]: no toxicological responses were noted | growth hormone in the serum [2]: increase in growth hormone in the serum on Day 1 | toxicological responses [3]: no toxicological responses were noted | amount of food consumed, Group 2 versus untreated Group 3 [4]: no significant difference | body weights of Group 2 versus untreated Group 3 [4]: no significant differences | serum concentration of IGF-1 as a result of treatment [5]: increased in serum concentration of IGF-1
